Reference: patent publication US8293917B2, “Pyrazole compounds as CCR1 antagonists” (Boehringer Ingelheim International GmbH, priority 2008, dated 2012)
“And” between values parts separate entries of the source, which are not always exact repeats. Equal values may be shown once.

biological target: T1, CCR1 (Homo sapiens, UniProt P32246); assay: functional cellular assay measuring calcium flux in response to MIP1α in CCR1-transfected cells (Method A or Method B); format: cell-based; conditions: cells stably expressing recombinant CCR1 and G-alpha-16; MIP-1alpha added at EC80; method (A: FLIPR TETRA, B: FDSS6000) not stated per compound
T1 construct: host or cells: non-adherent cells
T1 sequence (P32246 1-355): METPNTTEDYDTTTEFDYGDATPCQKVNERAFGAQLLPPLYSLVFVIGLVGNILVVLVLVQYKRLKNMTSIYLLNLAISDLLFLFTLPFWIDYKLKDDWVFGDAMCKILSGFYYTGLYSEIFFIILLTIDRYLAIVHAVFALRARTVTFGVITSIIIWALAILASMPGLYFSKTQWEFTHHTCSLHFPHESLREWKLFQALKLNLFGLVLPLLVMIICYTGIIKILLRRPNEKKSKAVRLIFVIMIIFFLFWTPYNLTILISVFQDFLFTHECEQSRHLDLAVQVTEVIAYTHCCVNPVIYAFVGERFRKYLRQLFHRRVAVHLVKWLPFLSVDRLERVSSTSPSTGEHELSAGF
Method: Compounds are assessed for the ability to block the interaction of CCR1 and its ligands in a functional cellular assay measuring calcium flux in response to MIP1α in CCR1-transfected cells.
Method A: Non-adherent cells purchased from Chemicon Corporation (HTS005C), stably expressing recombinant CCR1 and G-alpha-16 are grown in RPMI 1640 medium (Mediatech 10-080-CM) supplemented with 10% heat-inactivated FBS, 0.4 mg/mL Geneticin and penicillin/streptomycin. On the day of the assay, the cells are transferred to a beaker and dye-loaded in bulk using a Fluo-4 NW Calcium Assay Kit with probenecid (Invitrogen F36205) at 0.8E6 cells/mL for 1 hour at room temperature. After 1 hour, they are seeded in a 384-well tissue culture-treated plate at a density of 20,000 cells/well. Appropriately diluted test compound is added to the well to achieve a top concentration of 3,000 nM (diluted 3-fold with 10 doses total). The final concentration of DMSO is 1%. The buffer is HBSS (Invitrogen 14025) with 20 mM HEPES at pH 7.4. The cells are allowed to incubate 1 hour in the dark at room temperature. The plates are transferred to the FLIPR TETRA where MIP-1alpha in 1% BSA is added at the EC80 final concentration. Wells +/−MIP-1alpha containing diluted DMSO instead of compound serve as the controls. Intracellular calcium flux is recorded on the FLIPR TETRA, using excitation at 470/495 nm and emission at 515/575 nm. Data are analyzed using Activity Base software.
Method B: Non-adherent cells purchased from Chemicon Corporation (HTS005C), stably expressing recombinant CCR1 and G-alpha-16 are grown in RPMI 1640 medium (Mediatech 10-080-CM) supplemented with 10% FBS, 0.4 mg/mL Geneticin and penicillin/streptomycin. On the day of the assay, the cells are loaded with Calcium 4 dye (Molecular Devices R7448) with Probenecid (Invitrogen P346400) at 8E5 cells/mL for 1 hour at room temperature. After 1 hour, they are seeded in a 384-well tissue culture-treated plate at a density of 20,000 cells/well. Appropriately diluted test compound is added to the well to achieve a top concentration of 3,000 nM (diluted 4-fold with 10 doses total). The final concentration of DMSO is 1%. The buffer is HBSS (Invitrogen 14025) with 20 mM HEPES at pH 7.4. The cells incubate 30 minutes at 37 C and then 30 minutes at room temperature. The plates are transferred to the HAMAMATSU FDSS6000 where MIP-1alpha in 1% BSA is added at the EC80 final concentration. All plates must be read within 4 hours of the start of dye-loading. Wells +/−MIP-1alpha containing diluted DMSO instead of compound serve as the controls. Data are analyzed using Activity Base software.

Structure (SMILES) | IC50
CCC[C@H](NC(=O)c1cnn(-c2ccc(Cl)cc2)c1C)c1cccc(Br)c1 [1-(4-Chloro-phenyl)-5-methyl-1H-pyrazole-4-carboxylic acid [(S)-1-(3-bromo-phenyl)-butyl]-amide] | 28 nM
CCCC(NC(=O)c1cnn(-c2ccc(Cl)cc2)c1C)c1ccc(S(=O)(=O)NC2CCOCC2)nc1 (stereo not drawn) [1-(4-Chloro-phenyl)-5-methyl-1H-pyrazole-4-carboxylic acid {1-[6-(tetrahydro-pyran-4-ylsulfamoyl)-pyridin-3-yl]-butyl}-amide] | 41 nM
C=CCC[C@H](NC(=O)c1cnn(-c2ccc(Cl)c(Cl)c2)c1C)c1cccc(Br)c1 [1-(3,4-Dichloro-phenyl)-5-methyl-1H-pyrazole-4-carboxylic acid [(S)-1-(3-bromo-phenyl)-pent-4-enyl]-amide] | 41 nM
CCC[C@H](NC(=O)c1cnn(-c2ccc(Cl)cc2)c1CN)c1cccc(C(F)(F)F)c1 [5-Aminomethyl-1-(4-chloro-phenyl)-1H-pyrazole-4-carboxylic acid [(S)-1-(3-trifluoromethyl-phenyl)-butyl]-amide] | 12 nM
CCC[C@H](NC(=O)c1cnn(-c2ccc(Cl)cc2)c1CO)c1cccc(Br)c1 [1-(4-Chloro-phenyl)-5-hydroxymethyl-1H-pyrazole-4-carboxylic acid [(S)-1-(3-bromo-phenyl)-butyl]-amide] | 16 nM
CCC[C@H](NC(=O)c1cnn(-c2ccc(Cl)cc2)c1C)c1ccc(S(C)(=O)=O)nc1 (stereo in doubt) [1-(4-Chloro-phenyl)-5-methyl-1H-pyrazole-4-carboxylic acid [1-(6-methanesulfonyl-pyridin-3-yl)-butyl]-amide] | 35 nM
CC[C@H](NC(=O)c1cnn(-c2ccc(Cl)cc2)c1C)c1cncc(Br)c1 [1-(4-Chloro-phenyl)-5-methyl-1H-pyrazole-4-carboxylic acid [(S)-1-(5-bromo-pyridin-3-yl)-propyl]-amide] | 20 nM
CCCC(NC(=O)c1cnn(-c2ccc(Cl)cc2)c1C)c1ccc(S(=O)(=O)C2CC2)nc1 (stereo not drawn) [1-(4-Chloro-phenyl)-5-methyl-1H-pyrazole-4-carboxylic acid [1-(6-cyclopropanesulfonyl-pyridin-3-yl)-butyl]-amide] | 53 nM
CC[C@H](NC(=O)c1cnn(-c2ccc(Cl)cc2)c1C)c1cnc(S(C)(=O)=O)s1 [1-(4-Chloro-phenyl)-5-methyl-1H-pyrazole-4-carboxylic acid [(S)-1-(2-methanesulfonyl-thiazol-5-yl)-propyl]-amide] | 57 nM
CCCC(NC(=O)c1cnn(-c2ccc(Cl)cc2)c1C)c1cncc(S(=O)(=O)C(C)C)c1 (stereo not drawn) [1-(4-Chloro-phenyl)-5-methyl-1H-pyrazole-4-carboxylic acid {1-[5-(propane-2-sulfonyl)-pyridin-3-yl]-butyl}-amide] | 72 nM
CCCC(NC(=O)c1cnn(-c2ccc(Cl)c(F)c2)c1C)c1cncc(S(C)(=O)=O)c1 (stereo not drawn) [1-(4-Chloro-3-fluoro-phenyl)-5-methyl-1H-pyrazole-4-carboxylic acid [1-(5-methanesulfonyl-pyridin-3-yl)-butyl]-amide] | 37 nM
CCCC(NC(=O)c1cnn(-c2ccc(Cl)c(F)c2)c1C)c1ccc(S(C)(=O)=O)nc1 (stereo not drawn) [1-(4-Chloro-3-fluoro-phenyl)-5-methyl-1H-pyrazole-4-carboxylic acid [1-(6-methanesulfonyl-pyridin-3-yl)-butyl]-amide] | 91 nM
CCCC(NC(=O)c1cnn(-c2ccc(Cl)cc2)c1C)c1cncc(S(N)(=O)=O)c1 (stereo not drawn) [1-(4-Chloro-phenyl)-5-methyl-1H-pyrazole-4-carboxylic acid [1-(5-sulfamoyl-pyridin-3-yl)-butyl]-amide] | 31 nM and 35 nM
Cc1c(C(=O)N[C@@H](C)c2ccc(F)c(C(F)(F)F)c2)cnn1-c1ccc(Cl)c(Cl)c1 [1-(3,4-Dichloro-phenyl)-5-methyl-1H-pyrazole-4-carboxylic acid [(S)-1-(4-fluoro-3-trifluoromethyl-phenyl)-ethyl]-amide] | 28 nM
CC[C@H](NC(=O)c1cnn(-c2ccc(Cl)cc2)c1C)c1ccnc(S(C)(=O)=O)c1 [1-(4-Chloro-phenyl)-5-methyl-1H-pyrazole-4-carboxylic acid [(S)-1-(2-methanesulfonyl-pyridin-4-yl)-propyl]-amide] | 29 nM
CCCC(NC(=O)c1cnn(-c2ccc(Cl)cc2)c1C)c1ccc(S(=O)(=O)CC)nc1 (stereo not drawn) [1-(4-Chloro-phenyl)-5-methyl-1H-pyrazole-4-carboxylic acid [1-(6-ethanesulfonyl-pyridin-3-yl)-butyl]-amide] | 60 nM
Cc1c(C(=O)N[C@@H](C)c2cccc3ccccc23)cnn1-c1ccc(Cl)c(Cl)c1 [1-(3,4-Dichloro-phenyl)-5-methyl-1H-pyrazole-4-carboxylic acid ((S)-1-naphthalen-1-yl-ethyl)-amide] | 54 nM
CC[C@H](NC(=O)c1cnn(-c2ccc(Cl)cc2)c1C)c1ccnc(S(=O)(=O)NC)c1 [1-(4-Chloro-phenyl)-5-methyl-1H-pyrazole-4-carboxylic acid [(S)-1-(2-methylsulfamoyl-pyridin-4-yl)-propyl]-amide] | 19 nM

The next lines start with the values.

IC50 | Structure (SMILES)
12 nM | CCCC(NC(=O)c1cnn(-c2ccc(Cl)cc2)c1C)c1ccc(S(=O)(=O)N(C)C)nc1 (stereo not drawn) [1-(4-Chloro-phenyl)-5-methyl-1H-pyrazole-4-carboxylic acid [1-(6-dimethylsulfamoyl-pyridin-3-yl)-butyl]-amide]
12 nM | CCCC(NC(=O)c1cnn(-c2ccc(Cl)cc2)c1C)c1ccnc(S(=O)(=O)C2CC2)c1 (stereo not drawn) [1-(4-Chloro-phenyl)-5-methyl-1H-pyrazole-4-carboxylic acid [1-(2-cyclopropanesulfonyl-pyridin-4-yl)-butyl]-amide]
0.6 nM | CCCC(NC(=O)c1cnn(-c2ccc(Cl)c(Cl)c2)c1C)c1ccnc(Br)c1 (stereo not drawn) [1-(3,4-Dichloro-phenyl)-5-methyl-1H-pyrazole-4-carboxylic acid [1-(2-bromo-pyridin-4-yl)-butyl]-amide]
1 nM | CCCC(NC(=O)c1cnn(-c2ccc(Cl)c(Cl)c2)c1C)c1cncc(S(C)(=O)=O)c1 (stereo not drawn) [1-(3,4-Dichloro-phenyl)-5-methyl-1H-pyrazole-4-carboxylic acid [1-(5-methanesulfonyl-pyridin-3-yl)-butyl]-amide]
5.9 nM | CCCC(NC(=O)c1cnn(-c2ccc(F)c(Cl)c2)c1C)c1cncc(S(C)(=O)=O)c1 (stereo not drawn) [1-(3-Chloro-4-fluoro-phenyl)-5-methyl-1H-pyrazole-4-carboxylic acid [1-(5-methanesulfonyl-pyridin-3-yl)-butyl]-amide]
9.3 nM | CCCC(NC(=O)c1cnn(-c2ccc(Br)cc2)c1C)c1cncc(S(C)(=O)=O)c1 (stereo not drawn) [1-(4-Bromo-phenyl)-5-methyl-1H-pyrazole-4-carboxylic acid [1-(5-methanesulfonyl-pyridin-3-yl)-butyl]-amide]
6.3 nM | CCCC(NC(=O)c1cnn(-c2ccc(Cl)cc2)c1C)c1ccc(S(=O)(=O)NC)nc1 (stereo not drawn) [1-(4-Chloro-phenyl)-5-methyl-1H-pyrazole-4-carboxylic acid [1-(6-methylsulfamoyl-pyridin-3-yl)-butyl]-amide]
4.9 nM | CCCC(NC(=O)c1cnn(-c2ccc(Cl)cc2)c1C)c1cncc(S(=O)(=O)N(C)C)c1 (stereo not drawn) [1-(4-Chloro-phenyl)-5-methyl-1H-pyrazole-4-carboxylic acid [1-(5-dimethylsulfamoyl-pyridin-3-yl)-butyl]-amide]
6.5 nM | CCC[C@H](NC(=O)c1cnn(-c2ccc(Cl)cc2)c1CO)c1cccc(C(F)(F)F)c1 [1-(4-Chloro-phenyl)-5-hydroxymethyl-1H-pyrazole-4-carboxylic acid [(S)-1-(3-trifluoromethyl-phenyl)-butyl]-amide]
